Where two headings read alike, the source gives them in different places.
What was measured:
erythrocytes = assay: Binding to erythrocytes: displacement of estradiol-3-sulfamate from the erythrocyte bond (RBA); parameters: species or system human; settings: for RBA in Erythrocytes: human blood, displacement of 14C-labeled estradiol sulfamate, estradiol-3-sulfamate = 100
Protocol: The SO2—NH2 group of the compounds according to the invention can result in a concentration in erythrocytes by binding to carboanhydrases. The displacement of estradiol-3-sulfamate from the erythrocyte bond by test substances is measured. Test preparation: human blood is mixed with a mixture that consists of ^14C-labeled and unlabeled estradiol sulfamate. The erythrocytes are saturated at the selected working point. The distribution in plasma/erythrocytes is 40:60. A second blood sample is mixed with a mixture that consists of ^14C-labeled estradiol sulfamate and unlabeled test substance. The relative binding affinity is calculated from the proportion of ^14C-labeled estradiol sulfamate in plasma: higher proportion=strong displacement of ^14C-estradiol sulfamate from the erythrocytes by the test substance=high binding affinity of the test substances to the erythrocytes.

[1] = Determination of the erythrocyte/plasma distribution ratio; format: in vitro ADME; settings: freshly obtained, heparinized blood
Protocol: Freshly obtained, heparinized blood is mixed with a defined amount of test substance. The concentration in the plasma obtained therefrom is measured. The erythrocyte/plasma distribution ratio is calculated from the measured concentration of the entire substance in plasma and the concentration that is used.

Human Carboanhydrase I = Human Carboanhydrase I (Homo sapiens, UniProt P00915); assay: Carboanhydrase I inhibition (CO2 hydration); format: biochemical
Protocol: Carboanhydrases catalyze the CO2 hydration.
Test preparation: A constant CO2 stream is directed by a buffer that was mixed with carboanhydrase I. The time that is required to reduce the pH within defined limits is a measuring parameter. This parameter reflects the formation of H2CO3 in the medium. IC50 inhibiting values are determined by test substances being pipetted into the test preparation.

[2] = test system: gonadally intact, adult, sexually mature rats; assay: Test (III), oral treatment over 6 weeks; format: in vivo, rat
Protocol: (§1) • Method: Adult male rats, of about 300 g of body weight, are castrated and treated orally over 7 days with MENT and compound 12 according to the invention. On the 8th day of the test, the animals are sacrificed, and the hormonal effects of the test substances are evaluated (growth of the accessory sex glands, reduction of the gonadotropic hormones in plasma, parameters of hepatic actions: effects on HDL lipoproteins, determination of MENT in the plasma). Test (III) on Gonadally Intact Adult Sexually Mature Rats Over 6 Weeks
• Method: Adult male rats of above 300 g of body weight are treated orally over 6 weeks with MENT and compounds 12 or 5 according to the invention. At the end of the test, the animals are sacrificed, and the hormonal effects of the test substances are evaluated (weight of the testes and the accessory sex glands, reduction of the gonadotropic hormones and testosterone in the plasma during the course of the test, parameters of hepatic actions: effects on HDL lipoproteins).

[3] = test system: sexually immature, castrated male rats; assay: Test (I), oral treatment over 7 days, evaluation on day 8; format: in vivo, rat
Protocol: Test (I) on Sexually Immature, Castrated Male Rats Over 8 Days
Method: Male rats weighing about 45 g of body weight are castrated and treated orally over 7 days with MENT and with compounds 12 or 18 according to the invention. On the 8th day of the test, the animals are sacrificed, and the hormonal effects of the test substances are evaluated (growth of the accessory sex glands, reduction of gonadotropic hormones in plasma, parameters of hepatic actions: effects on HDL lipoproteins).

[4] = test system: sexually mature, castrated male rats; assay: Test (II), oral treatment over 7 days, evaluation on day 8; format: in vivo, rat
Protocol: Test (II) on Sexually Mature, Castrated Male Rats Over 8 Days
as §1

[5] = test system: accessory sex glands (prostate); assay: Hershberger Test (comparison of m- and p-substituted compound; test not specified); format: in vivo, rat; settings: m-substituted compound 12 compared to p-substituted compound 11

Chain of Human Carboanhydrase I (P00915 whole entry): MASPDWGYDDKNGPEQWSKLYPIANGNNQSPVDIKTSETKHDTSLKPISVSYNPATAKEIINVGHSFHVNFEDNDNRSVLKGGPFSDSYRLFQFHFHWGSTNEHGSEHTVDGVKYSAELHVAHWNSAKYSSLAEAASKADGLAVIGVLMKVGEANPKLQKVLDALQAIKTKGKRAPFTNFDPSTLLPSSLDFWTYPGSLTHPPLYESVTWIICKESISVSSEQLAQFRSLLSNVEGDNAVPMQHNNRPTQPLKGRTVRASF

SMILES	RBA in Erythrocytes (erythrocytes)	Distribution Ratio with Erythrocytes/Plasma [1]	IC50 (Human Carboanhydrase I)	growth of the accessory sex glands [3]	also measured
C[C@]12CC[C@H]3[C@@H](CCC4=CC(=O)CC[C@@]43C)[C@@H]1CC[C@@H]2OC(=O)c1ccc(S(N)(=O)=O)cc1 [Compound 1, 3-Oxoandrost-4-en-17β-yl 4′-sulfamoyl benzoate]	48	9	370 nM		
COc1ccc(S(N)(=O)=O)cc1C(=O)O[C@H]1CC[C@H]2[C@@H]3CCC4=CC(=O)CC[C@]4(C)[C@H]3CC[C@]12C [Compound 4, 3-Oxoandrost-4-en-17β-yl 2′-methoxy-5′-sulfamoyl benzoate]	0.8	2			
C[C@]12CC[C@H]3[C@@H](CCC4=CC(=O)CC[C@@]43C)[C@@H]1CC[C@@H]2OC(=O)c1cccc(S(N)(=O)=O)c1 [Compound 5, 3-Oxoandrost-4-en-17β-yl 3′-sulfamoyl benzoate]	1.3	2	880 nM		changes in hepatic parameters [2]: especially small changes in hepatic parameters
C[C@]12CC[C@H]3[C@@H](CCC4=CC(=O)CC[C@@H]43)[C@@H]1CC[C@@H]2OC(=O)c1ccc(S(N)(=O)=O)cc1 [Compound 8, 3-Oxoestr-4-en-17β-yl 4′-sulfamoyl benzoate]	24	7			
C[C@@H]1CC2=CC(=O)CC[C@@H]2[C@H]2CC[C@]3(C)[C@@H](OC(=O)c4ccc(S(N)(=O)=O)cc4)CC[C@H]3[C@@H]21 [Compound 11, 3-Oxo-7α-methylestr-4-en-17β-yl 4′-sulfamoyl benzoate]					IC50 (Human Carboanhydrase I; human carboanhydrase I, read-out: CAI IC50): 200 to 400 nM
C[C@@H]1CC2=CC(=O)CC[C@@H]2[C@H]2CC[C@]3(C)[C@@H](OC(=O)c4cccc(S(N)(=O)=O)c4)CC[C@H]3[C@@H]21 [Compound 12, 3-Oxo-7α-methylestr-4-en-17β-yl 3′-sulfamoyl benzoate]	2.1	3	600 nM	strong dose-dependent effects on the growth of the accessory sex glands	bond strength to the erythrocytes (in words) (erythrocytes; m-substituted versus 4'-sulfamoyl benzoates): lower bond strength to the erythrocytes; levels of MENT in the plasma ([4]; after oral administration): significantly higher levels of MENT are achieved in the plasma than after the administration of MENT itself; growth of the accessory sex glands ([4]; oral, 7 days): unexpectedly strong, dose-dependent effects on the growth of the accessory sex glands; antigonadotropic effects [2]: Superior antigonadotropic effects; effects on the accessory sex glands (weights of seminal vesicles and prostates) [2]: induced in a dose-dependent way an increase of the weights of the seminal vesicles and prostates beyond the level of intact controls; activity in the Hershberger Test [5]: higher activity in the Hershberger Test compared to the p-substituted compound 11
C[C@]12CC[C@H]3[C@@H](CCC4=CC(=O)CC[C@@]43C)[C@@H]1CC[C@@H]2OC(=O)CCc1ccc(S(N)(=O)=O)cc1 [Compound 14, 3-Oxoandrost-4-en-17β-yl 4′-sulfamoylphenylpropionate]	3.4	4			
C[C@]12CC[C@H]3[C@@H](CCC4=CC(=O)CC[C@@]43C)[C@@H]1CC[C@@H]2OC(=O)c1cc(S(N)(=O)=O)ccc1O [Compound 18, 3-Oxoandrost-4-en-17β-yl 2′-hydroxy-5′-sulfamoyl Benzoate]	1.4	2		strong dose-dependent effects on the growth of the accessory sex glands	
C[C@]12CC[C@@H]3c4ccc(OS(N)(=O)=O)cc4CC[C@H]3[C@@H]1CC[C@@H]2O [Estradiol-3-sulfamate, reference compound]	100	48			
C[C@@H]1CC2=CC(=O)CC[C@@H]2[C@H]2CC[C@]3(C)[C@@H](O)CC[C@H]3[C@@H]21 [MENT, 7α-methyl-19-nortestosterone, reference compound]				only marginal effects	reduction of HDL [3]: even more active than the substances according to the invention; growth of the accessory sex glands ([4]; oral, 7 days): only marginal effects; reduction of HDL ([4]; oral, 7 days): even more active than the substances according to the invention; effects on the accessory sex glands (weights of seminal vesicles and prostates) [2]: A corresponding effect even in the case of extremely high dosage did not occur; reduction of HDL [2]: even more effective than the substances according to the invention

From patent US20050282793A1, “Steroid prodrugs with androgenic action” (priority 2004, published 2005)
